Measurements as given in US12590961B2, “Quantum dot conjugated virus spike protein for cell-based bio-sensing systems and drug screening” (priority 2020, dated 2026).

Test system: ACE2-GFP HEK293T cells
Format: cell-based, human

Which results are given for `O=C(N/N=C/c1cc(O)c(O)cc1O)c1cc2ccccc2cc1O` [Dyngo-4a]?
blocking of endo(RBD-ACE2), QD608-RBD induced translocation of ACE2-GFP: robustly blocked; effect on ACE2-GFP localization, compound alone: did not affect the ACE2-GFP localization
